Experiments:
RSV B Washington strain = assay: Assessment of RSV induced CPE in HEp2 cells (RSV B Washington strain); format: cell-based; conditions: human respiratory syncytial virus, HEp2 cells; for IC50: HEp-2, 144 h, 1 MOI, 6 days, read-out: RSV B CPE IC50; for inhibition at 1 µg/mL / inhibition at 0.1 µg/mL: HEp-2; for inhibition at 1 µg/mL: Inhibition (%) at 1 μg/mL, read-out: RSV B CPE % Inhibition; for inhibition at 0.1 µg/mL: Inhibition (%) at 0.1 μg/mL
Method in brief: (§1)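 HEp2 cells were infected at MOI 1 with RSV A2 or RSV B Washington, with compound added at the same time (0.5% DMSO final). Incubation was 5 days for A2 and 6 days for B, then viability was read by resazurin fluorescence (545/590 nm) after 6 h. IC50, IC75 and IC90 came from concentration-response curves.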

RSV A2 strain = assay: Assessment of RSV induced CPE in HEp2 cells (RSV A2 strain); format: cell-based; conditions: human respiratory syncytial virus, HEp2 cells; for IC50: HEp-2, 120 h, 1 MOI, 5 days, read-out: RSV A2 CPE IC50; for inhibition at 0.01 µg/mL: Inhibition (%) at 0.01 μg/mL
Method in brief: as §1

[1] = Cell viability: resazurin assay; format: cell-based, human; conditions: human, HEp2 cells
Method in brief: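 Viability read-out: resazurin fluorescence (ex 545, em 590 nm) after 6 h, following 5-day compound incubation of HEp2 cells (37 °C, 5% CO2, 5% FBS, 0.5% DMSO final). Loss expressed as percentage of vehicle, negative if viability rose; CC50 derived from concentration-response curve where appropriate.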

IC50 (RSV B Washington strain) [nM]	IC50 (RSV A2 strain) [nM]	Structure (SMILES)	inhibition at 1 µg/mL (RSV B Washington strain) [%]	inhibition at 0.01 µg/mL (RSV A2 strain; HEp-2) [%]	CC50 at 5 days [1] [µM]	inhibition at 0.1 µg/mL (RSV B Washington strain) [%]	inhibition at 0.1 µg/mL (RSV A2 strain; HEp-2, Inhibition (%) at 0.1 μg/mL, read-out: RSV A2 CPE % Inhibition) [%]
3.8	0.88	Cc1cccc(C#N)c1NC(=O)c1cc2c(s1)-c1ccccc1N(C(=O)c1ccc(NC(=O)c3cc4c(nc3N3CC5(CCOCC5)C3)CCC4)cc1)CC2 [Example 74, 6-(4-(2-(7-oxa-2-azaspiro[3.5]nonan-2-yl)-6,7-dihydro-5H-cyclopenta[b]pyridine-3-carboxamido)benzoyl)-N-(2-cyano-6-methylphenyl)-5,6-dihydro-4H-benzo[b]thieno[2,3-d]azepine-2-carboxamide]	77	100	> 13.4		
19.2	4.9	Cc1cccc(C#N)c1NC(=O)c1cc2c(s1)-c1ccccc1N(C(=O)c1ccc(NC(=O)c3cc4c(nc3N3CC5(CCOCC5)C3)CCC4)cc1F)CC2 [Example 77, 6-(4-(2-(7-oxa-2-azaspiro[3.5]nonan-2-yl)-6,7-dihydro-5H-cyclopenta[b]pyridine-3-carboxamido)-2-fluorobenzoyl)-N-(2-cyano-6-methylphenyl)-5,6-dihydro-4H-benzo[b]thieno [2,3-d]azepine-2-carboxamide]	92	94	> 13		
1.3	2.4	Cc1cccc(F)c1NC(=O)c1cc2c(s1)-c1ccccc1N(C(=O)c1ccc(NC(=O)c3cc4c(nc3N3CC5(CCOCC5)C3)CCC4)cc1F)CC2 [Example 78, 6-(4-(2-(7-oxa-2-azaspiro[3.5]nonan-2-yl)-6,7-dihydro-5H-cyclopenta[b]pyridine-3-carboxamido)-2-fluorobenzoyl)-N-(2-fluoro-6-methylphenyl)-5,6-dihydro-4H-benzo[b]thieno [2,3-d]azepine-2-carboxamide]	94	89	> 13.2		
1.8	2.3	O=C(Nc1c(F)cccc1F)c1cc2c(s1)-c1ccccc1N(C(=O)c1ccc(NC(=O)c3cc4c(nc3N3CC5(CCOCC5)C3)CCC4)cc1F)CC2 [Example 79, 6-(4-(2-(7-oxa-2-azaspiro[3.5]nonan-2-yl)-6,7-dihydro-5H-cyclopenta[b]pyridine-3-carboxamido)-2-fluorobenzoyl)-N-(2,6-difluorophenyl)-5,6-dihydro-4H-benzo[b]thieno[2,3-d]azepine-2-carboxamide]	93	92	> 13.1		
1.6	2	O=C(Nc1c(F)cccc1Cl)c1cc2c(s1)-c1ccccc1N(C(=O)c1ccc(NC(=O)c3cc4c(nc3N3CC5(CCOCC5)C3)CCC4)cc1F)CC2 [Example 80, 6-(4-(2-(7-oxa-2-azaspiro[3.5]nonan-2-yl)-6,7-dihydro-5H-cyclopenta[b]pyridine-3-carboxamido)-2-fluorobenzoyl)-N-(2-chloro-6-fluorophenyl)-5,6-dihydro-4H-benzo[b]thieno [2,3-d]azepine-2-carboxamide]	93	91	> 12.8		
7.6	0.78	O=C(Nc1c(F)cccc1F)c1cc2c(s1)-c1ccccc1N(C(=O)c1ccc(NC(=O)c3cc4c(nc3N3CC5(CCOCC5)C3)CCOC4)cc1)CC2 [Example 82, N-(4-(2-((2,6-difluorophenyl)carbamoyl)-5,6-dihydro-4H-benzo[b]thieno[2,3-d]azepine-6-carbonyl)phenyl)-2-(7-oxa-2-azaspiro[3.5]nonan-2-yl)-7,8-dihydro-5H-pyrano[4,3-b] pyridine-3-carboxamide]		97	> 13.1	100	
6.2	0.15	O=C(Nc1c(F)cccc1Cl)c1cc2c(s1)-c1ccccc1N(C(=O)c1ccc(NC(=O)c3cc4c(nc3N3CC5(CCOCC5)C3)CCOC4)cc1)CC2 [Example 83, N-(4-(2-((2-chloro-6-fluorophenyl)carbamoyl)-5,6-di-hydro-4H-benzo[b]thieno[2,3-d]azepine-6-carbonyl)phenyl)-2-(7-oxa-2-azaspiro[3.5]nonan-2-yl)-7,8-dihydro-5H-pyrano [4,3-b]pyridine-3-carboxamide]	95	100	> 12.8		
11	0.13	O=C(Nc1ccccc1F)c1cc2c(s1)-c1ccccc1N(C(=O)c1ccc(NC(=O)c3cc4ccccc4nc3N3CC4(CCOCC4)C3)cc1)CC2 [Example 84, 6-(4-(2-(7-oxa-2-azaspiro[3.5]nonan-2-yl)quinoline-3-carboxamido)benzoyl)-N-(2-fluorophenyl)-5,6-dihydro-4H-benzo[b]thieno[2,3-d]azepine-2-carboxamide]	68		> 13.6		97

Second part, the compound before the results:

Structure (SMILES)	IC50 (RSV B Washington strain) [nM]	IC50 (RSV A2 strain) [nM]	inhibition at 1 µg/mL (RSV B Washington strain) [%]	inhibition at 0.01 µg/mL (RSV A2 strain; HEp-2) [%]	CC50 at 5 days [1] [µM]	inhibition at 0.1 µg/mL (RSV B Washington strain) [%]	inhibition at 0.1 µg/mL (RSV A2 strain; HEp-2, Inhibition (%) at 0.1 μg/mL, read-out: RSV A2 CPE % Inhibition) [%]
C#Cc1cnc(N2CC3(CCOCC3)C2)c(C(=O)Nc2ccc(C(=O)N3CCc4cc(C(=O)Nc5c(F)cccc5Cl)sc4-c4ccccc43)cc2)c1 [Example 66, N-(2-chloro-6-fluorophenyl)-6-(4-(5-ethynyl-2-(7-oxa-2-azaspiro[3.5]nonan-2-yl)nicotinamido)benzoyl)-5,6-dihydro-4H-benzo[b]thieno[2,3-d]azepine-2-carboxamide]	4.8	0.15	95	95	> 13.4		
COCc1cnc(N2CC3(CCOCC3)C2)c(C(=O)Nc2ccc(C(=O)N3CCc4cc(C(=O)Nc5c(F)cccc5Cl)sc4-c4ccccc43)cc2)c1 [Example 67, N-(2-chloro-6-fluorophenyl)-6-(4-(5-(methoxymethyl)-2-(7-oxa-2-azaspiro[3.5]nonan-2-yl)nicotinamido)benzoyl)-5,6-dihydro-4H-benzo[b]thieno[2,3-d]azepine-2-carboxamide]	6.5	0.17	100	100	> 13.1		
Cc1cccc(F)c1NC(=O)c1cc2c(s1)-c1ccccc1N(C(=O)c1ccc(NC(=O)c3cc(F)cnc3N3CC4(CCOCC4)C3)cc1)CC2 [Example 68, 6-(4-(5-fluoro-2-(7-oxa-2-azaspiro[3.5]nonan-2-yl)nicotinamido)benzoyl)-N-(2-fluoro-6-methylphenyl)-5,6-dihydro-4H-benzo[b]thieno[2,3-d]azepine-2-carboxamide]	17.1	0.087	100	90	> 13.9		
Cc1cccc(F)c1NC(=O)c1cc2c(s1)-c1ccccc1N(C(=O)c1ccc(NC(=O)c3cc(Cl)cnc3N3CC4(CCOCC4)C3)cc1)CC2 [Example 69, 6-(4-(5-chloro-2-(7-oxa-2-azaspiro[3.5]nonan-2-yl)nicotinamido)benzoyl)-N-(2-fluoro-6-methylphenyl)-5,6-dihydro-4H-benzo[b]thieno[2,3-d]azepine-2-carboxamide]	15.3	0.45	100	96	> 13.6		
[2H]c1c([2H])c(C(=O)N2CCc3cc(C(=O)Nc4c(C)cccc4F)sc3-c3ccccc32)c([2H])c([2H])c1NC(=O)c1cc(C)cnc1N1CC2(CCOCC2)C1 [Example 70]	1.2	0.18	100	76	> 13.9		
COc1cnc(N2CC3(CCOCC3)C2)c(C(=O)Nc2ccc(C(=O)N3CCc4cc(C(=O)Nc5c(C)cccc5F)sc4-c4ccccc43)cc2)c1 [Example 71, N-(2-fluoro-6-methylphenyl)-6-(4-(5-methoxy-2-(7-oxa-2-azaspiro[3.5]nonan-2-yl)nicotinamido)benzoyl)-5,6-di-hydro-4H-benzo[b]thieno[2,3-d]azepine-2-carboxamide]	15.5	0.61		100	> 13.7	100	
O=C(Nc1c(F)cccc1F)c1cc2c(s1)-c1ccccc1N(C(=O)c1ccc(NC(=O)c3cc(C4CC4)cnc3N3CC4(CCOCC4)C3)cc1)CC2 [Example 72, 6-(4-(5-cyclopropyl-2-(7-oxa-2-azaspiro[3.5]nonan-2-yl)nicotinamido)benzoyl)-N-(2,6-difluorophenyl)-5,6-dihydro-4H-benzo[b]thieno[2,3-d]azepine-2-carboxamide]	3.3	0.32	89	100	> 13.4		
C=C(C)c1cnc(N2CC3(CCOCC3)C2)c(C(=O)Nc2ccc(C(=O)N3CCc4cc(C(=O)Nc5c(F)cccc5F)sc4-c4ccccc43)cc2)c1 [Example 73, N-(2,6-difluorophenyl)-6-(4-(5-(prop-1-en-2-yl)-2-(7-oxa-2-azaspiro[3.5]nonan-2-yl)nicotinamido)benzoyl)-5,6-dihydro-4H-benzo[b]thieno[2,3-d]azepine-2-carboxamide]	14.8	2.6	98	84	> 13.4		

Source: patent publication US10189863B2, “5,6-dihydro-4H-benzo[b]thieno-[2,3-d]azepine derivatives” (PULMOCIDE LIMITED, priority 2014, dated 2019)
